Experimental data taken from patent US10582709B2, “Butyrolactones as herbicides” (FMC Corporation, priority 2015, dated 2020).

Assays:
Format in all cases: in vivo
[1] = tested on: crabgrass (large crabgrass, Digitaria sanguinalis); test: Test A preemergence, crabgrass; conditions: visual rating after approx. 10 d, 0 to 100 scale, 0 no effect, 100 complete control
Excerpt: (§1) Seeds of plant species selected from barnyardgrass (Echinochloa crus-galli), crabgrass (large crabgrass, Digitaria sanguinalis), kochia (Kochia scoparia), ragweed (common ragweed, Ambrosia elatior), morningglory (Ipomoea spp.), velvetleaf (Abutilon theophrasti), ryegrass, Italian (Italian ryegrass, Lolium multiflorum), foxtail, giant (giant foxtail, Setaria faberii), wheat (Triticum aestivum), corn (Zea mays), and pigweed (Amaranthus retroflexus), were planted into a blend of loam soil and sand and treated preemergence with a directed soil spray using test chemicals formulated in a non-phytotoxic solvent mixture which included a surfactant. At the same time, plants selected from these crop and weed species and also blackgrass (Alopecurus myosuroides), and galium (catchweed bedstraw, Galium aparine), were planted in pots containing the same blend of loam soil and sand and treated with postemergence applications of test chemicals formulated in the same manner. Plants ranged in height from 2 to 10 cm and were in the one- to two-leaf stage for the postemergence treatment. Treated plants and untreated controls were maintained in a greenhouse for approximately 10 d, after which time all treated plants were compared to untreated controls and visually evaluated for injury. Plant response ratings, summarized in Table A, are based on a 0 to 100 scale where 0 is no effect and 100 is complete control. A dash (-) response means no test result.

[2] = tested on: pigweed (Amaranthus retroflexus); test: Test A postemergence, pigweed; conditions: visual rating after approx. 10 d, 0 to 100 scale, 0 no effect, 100 complete control
Procedure, shortened: (§2)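 Following ~10 d greenhouse growth, treated plants were compared with untreated controls and injury rated 0 (no effect) to 100 (complete control). Treatments: directed spray onto seeded loam/sand soil, or onto one- to two-leaf plants 2–10 cm tall, compound formulated in solvent with surfactant.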

rice (Oryza sativa) = test: Test B flooded paddy test, rice; conditions: 250 g ai/ha; applied to paddy water at 2-leaf stage; 13 to 15 d; scale 0 no effect to 100 complete control
Procedure, shortened: (§3)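 Plants grown to the 2-leaf stage. At treatment, pots were flooded to 3 cm above the soil, compound was applied directly to the paddy water, and that depth was held throughout. After 13 to 15 d in the greenhouse, response was rated visually against controls on a 0 (no effect) to 100 (complete control) scale.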

[3] = tested on: sedge, umbrella (small-flower umbrella sedge, Cyperus difformis); test: Test B flooded paddy test, umbrella sedge; conditions: 250 g ai/ha; applied to paddy water at 2-leaf stage; 13 to 15 d; scale 0 no effect to 100 complete control
Procedure, shortened: as §3

[4] = tested on: wheat (Triticum aestivum); test: Test A postemergence, wheat; conditions: visual rating after approx. 10 d, 0 to 100 scale, 0 no effect, 100 complete control
Procedure, shortened: as §2

[5] = tested on: morningglory (Ipomoea spp.); test: Test A postemergence, morningglory; conditions: visual rating after approx. 10 d, 0 to 100 scale, 0 no effect, 100 complete control
Excerpt: as §1

[6] = tested on: velvetleaf (Abutilon theophrasti); test: Test A postemergence, velvetleaf; conditions: visual rating after approx. 10 d, 0 to 100 scale, 0 no effect, 100 complete control
Excerpt: as §1

corn (Zea mays) [7] = test: Test A preemergence, corn; conditions: visual rating after approx. 10 d, 0 to 100 scale, 0 no effect, 100 complete control
Excerpt: as §1

[8] = tested on: foxtail, giant (giant foxtail, Setaria faberii); test: Test A preemergence, giant foxtail; conditions: visual rating after approx. 10 d, 0 to 100 scale, 0 no effect, 100 complete control
Procedure, shortened: as §2

[9] = tested on: foxtail, giant (giant foxtail, Setaria faberii); test: Test A postemergence, giant foxtail; conditions: visual rating after approx. 10 d, 0 to 100 scale, 0 no effect, 100 complete control
Procedure, shortened: as §2

[10] = tested on: crabgrass (large crabgrass, Digitaria sanguinalis); test: Test A postemergence, crabgrass; conditions: visual rating after approx. 10 d, 0 to 100 scale, 0 no effect, 100 complete control
Excerpt: as §1

[11] = tested on: ducksalad (Heteranthera limosa); test: Test B flooded paddy test, ducksalad; conditions: 250 g ai/ha; applied to paddy water at 2-leaf stage; 13 to 15 d; scale 0 no effect to 100 complete control
Procedure, shortened: as §3

[12] = tested on: velvetleaf (Abutilon theophrasti); test: Test A preemergence, velvetleaf; conditions: visual rating after approx. 10 d, 0 to 100 scale, 0 no effect, 100 complete control
Excerpt: as §1

[13] = tested on: pigweed (Amaranthus retroflexus); test: Test A preemergence, pigweed; conditions: visual rating after approx. 10 d, 0 to 100 scale, 0 no effect, 100 complete control
Procedure, shortened: as §2

[14] = tested on: morningglory (Ipomoea spp.); test: Test A preemergence, morningglory; conditions: visual rating after approx. 10 d, 0 to 100 scale, 0 no effect, 100 complete control
Excerpt: as §1

[15] = tested on: barnyardgrass (Echinochloa crus-galli); test: Test B flooded paddy test, barnyardgrass; conditions: 250 g ai/ha; applied to paddy water at 2-leaf stage; 13 to 15 d; scale 0 no effect to 100 complete control
Procedure, shortened: as §3

[16] = tested on: wheat (Triticum aestivum); test: Test A preemergence, wheat; conditions: visual rating after approx. 10 d, 0 to 100 scale, 0 no effect, 100 complete control
Excerpt: as §1

[17] = tested on: barnyardgrass (Echinochloa crus-galli); test: Test A postemergence, barnyardgrass; conditions: visual rating after approx. 10 d, 0 to 100 scale, 0 no effect, 100 complete control
Procedure, shortened: as §2

corn (Zea mays) [18] = test: Test A postemergence, corn; conditions: 1000 g ai/ha, visual rating after approx. 10 d, 0 to 100 scale, 0 no effect, 100 complete control
Procedure, shortened: as §2

[19] = tested on: barnyardgrass (Echinochloa crus-galli); test: Test A preemergence, barnyardgrass; conditions: visual rating after approx. 10 d, 0 to 100 scale, 0 no effect, 100 complete control
Procedure, shortened: as §2

O=C(Nc1ccccc1C(F)(F)F)C1C(=O)OCC1c1ccc(F)cc1 (stereo not drawn) [Compound 6]
80: Plant response rating, Crabgrass ([1]; 1000 g ai/ha) | Plant response rating, Foxtail, Giant ([8]; 1000 g ai/ha) | Plant response rating, Foxtail, Giant ([9]; 1000 g ai/ha) | Plant response rating, Crabgrass ([10]; 1000 g ai/ha)
0: Plant response rating, Pigweed ([2]; 1000 g ai/ha) | Plant response rating, Flood, Rice (rice (Oryza sativa)) | Plant response rating, Flood, Sedge, Umbrella [3] | Plant response rating, Wheat ([4]; 1000 g ai/ha) | Plant response rating, Morningglory ([5]; 1000 g ai/ha) | Plant response rating, Velvetleaf ([6]; 1000 g ai/ha) | Plant response rating, Corn (corn (Zea mays) [7]; 1000 g ai/ha) | Plant response rating, Flood, Ducksalad [11] | Plant response rating, Velvetleaf ([12]; 1000 g ai/ha) | Plant response rating, Pigweed ([13]; 1000 g ai/ha) | Plant response rating, Morningglory ([14]; 1000 g ai/ha) | Plant response rating, Flood, Barnyardgrass [15] | Plant response rating, Wheat ([16]; 1000 g ai/ha) | Plant response rating, Corn (corn (Zea mays) [18])
20: Plant response rating, Barnyardgrass ([17]; 1000 g ai/ha) | Plant response rating, Barnyardgrass ([19]; 1000 g ai/ha)

O=C(Nc1ccccc1Cl)C1C(=O)OCC1c1ccc(F)c(F)c1 (racemic) [Compound 3]
80: Plant response rating, Foxtail, Giant ([8]; 500 g ai/ha)
0: Plant response rating, Pigweed ([2]; 125 g ai/ha) | Plant response rating, Pigweed ([2]; 500 g ai/ha) | Plant response rating, Flood, Rice (rice (Oryza sativa)) | Plant response rating, Flood, Sedge, Umbrella [3] | Plant response rating, Wheat ([4]; 125 g ai/ha) | Plant response rating, Wheat ([4]; 500 g ai/ha) | Plant response rating, Morningglory ([5]; 125 g ai/ha) | Plant response rating, Morningglory ([5]; 500 g ai/ha) | Plant response rating, Velvetleaf ([6]; 125 g ai/ha) | Plant response rating, Velvetleaf ([6]; 500 g ai/ha) | Plant response rating, Corn (corn (Zea mays) [7]; 125 g ai/ha) | Plant response rating, Corn (corn (Zea mays) [7]; 500 g ai/ha) | Plant response rating, Flood, Ducksalad [11] | Plant response rating, Velvetleaf ([12]; 125 g ai/ha) | Plant response rating, Velvetleaf ([12]; 500 g ai/ha) | Plant response rating, Pigweed ([13]; 125 g ai/ha) | Plant response rating, Pigweed ([13]; 500 g ai/ha) | Plant response rating, Morningglory ([14]; 125 g ai/ha) | Plant response rating, Morningglory ([14]; 500 g ai/ha) | Plant response rating, Flood, Barnyardgrass [15] | Plant response rating, Wheat ([16]; 125 g ai/ha) | Plant response rating, Wheat ([16]; 500 g ai/ha) | Plant response rating, Barnyardgrass ([17]; 125 g ai/ha) | Plant response rating, Barnyardgrass ([17]; 500 g ai/ha) | Plant response rating, Barnyardgrass ([19]; 125 g ai/ha)
40: Plant response rating, Crabgrass ([1]; 125 g ai/ha)
60: Plant response rating, Foxtail, Giant ([9]; 500 g ai/ha) | Plant response rating, Crabgrass ([10]; 125 g ai/ha)
70: Plant response rating, Foxtail, Giant ([8]; 125 g ai/ha) | Plant response rating, Crabgrass ([10]; 500 g ai/ha)
50: Plant response rating, Crabgrass ([1]; 500 g ai/ha) | Plant response rating, Foxtail, Giant ([9]; 125 g ai/ha)
30: Plant response rating, Barnyardgrass ([19]; 500 g ai/ha)
